Source: patent publication US20100016274A1, “BETA-LACTAM CANNABINOID RECEPTOR MODULATORS” (priority 2006, published 2010)
Where “and” joins values, the source holds several entries; their conditions need not be identical. Equal values may be shown once. Read-outs that look alike come from different tables or passages of the source.

Tests used:
[1] = molecular target: T1, cannabinoid receptor-2 (CB2), CB2R-containing cell membrane; hCB2 receptors (Homo sapiens, UniProt P34972); assay: Cannabinoid Receptor-2 (CB2) Binding Assay, Method A using cell membranes (displacement of 3H-CP55940); conditions: for IC50: displacement of 3H-CP55940 (1 nM), CB2R-containing cell membrane; for Ki: displacement of 3H-CP55940, CB2R-containing cell membrane, from serial dilutions
T1 construct: purchased Applied Cell Sciences Inc, Rockville, Md
Experimental: Method A using cell membranes. A compound is dissolved in DMSO and diluted to 1 M as a stock solution. […] A CB2R-containing cell membrane (Applied Cell Sciences Inc, Rockville, Md.) is diluted with binding buffer to a protein concentration of 28 μg/ml.
(§1) The mixture is incubated for 90 min at room temperature, then filtered through Whatman glass fiber C disc filter in a vacuum manifold. The filter is washed three times each with 2.5 ml cold wash buffer (binding buffer with only 2.5 mg/ml BSA). The vacuum-dried filter is transferred to a scintillation vial, treated with 3 ml Eco-Scint, and the radioactivity is read on a Beckman LS6500 scintillation counter from which an IC50 value is calculated. The corresponding Ki values are obtained from serial dilutions according to this method, and calculated through the use of a non-linear regression program (Graphpad Inc, San Diego, Calif.).

[2] = molecular target: T2, hCB1 (membranes from hCB1 stably transfected CHO cells) (Homo sapiens, UniProt P21554); assay: Cannabinoid Receptor-1 (CB1) Functional Activity Assay, Method A (35S-GTPγS, WIN 55212-2); format: biochemical; conditions: for antagonism of WIN 55212-2 at CB1 receptors: FIGS. 3b-3d; for antagonism at CB1 receptors: FIGS. 5a, 6a, 7a, no WIN 55212-2 named in the legend; for antagonism of 3 μM WIN 55212-2 at CB1 receptors: FIGS. 5b, 6b, 7b
T2 construct: purchased Perkin Elmer/NEN; host or cells: CHO cells, stably transfected
Experimental: (§2) Membranes are diluted in ice-cold assay buffer (10 mM HEPES, 100 mM NaCl, 10 mM MgCl2, 2 μM GDP, 0.2% FAF-BSA, 10 μg/mL saponin) to 38 μg membranes/mL. Dilute ^35S-GTPγ5 to 1 nM in assay buffer. […] These solutions are incubated for 30 minutes at 30° C. The filters are washed 6 times with 10 mM sodium phosphate buffer (pH 7.4) at ambient temperature. The filters are counted using a liquid scintillation counter on the ^35S channel. Each compound/concentration is run in triplicate. A positive antagonism control may be run for AM251 at the same concentrations as test compounds under the same conditions.

[3] = molecular target: T3, hCB2 (membranes from hCB2 stably transfected CHO cells) (Homo sapiens, UniProt P34972); assay: Cannabinoid Receptor-2 (CB2) Functional Activity Assay, Method A (35S-GTPγS); format: biochemical; conditions: positive control, FIG. 9a
T3 construct: purchased Perkin Elmer/NEN; host or cells: CHO cells, stably transfected
Experimental: as §2, with “^35S-GTPγS” for “^35S-GTPγ5”, “is” for “may be”, “AM630” for “AM251”

[4] = molecular target: T4, cannabinoid receptor-1 (CB1), CB1R-containing cell membrane (Homo sapiens, UniProt P21554); assay: biochemical; format: binding; conditions: for Ki: displacement of 3H-CP55940 on CB1 receptors, from serial dilutions, non-linear regression
T4 construct: purchased Applied Cell Sciences Inc, Rockville, Md
Experimental: Method A using cell membranes. A compound is dissolved in DMSO and diluted to 1 M as a stock solution. […] A CB1R-containing cell membrane (Applied Cell Sciences Inc, Rockville, Md.) is diluted with binding buffer to a protein concentration of 28 μg/ml.
as §1

[5] = molecular target: T1, cannabinoid receptor-2 (CB2), CB2R-containing cell membrane; hCB2 receptors; assay: Cannabinoid Receptor-2 (CB2) Binding Assay, Method A using cell membranes (displacement of 3H-CP55940)
[6] = displacement of 3H-CP55940 (1 nM) on CB1 receptors, read-out: IC50
[7] = IC50, displacement of 3H-CP55940 (1 nM) on CB1 receptors
[8] = FIG. 8, against pre-bound CP55940 on CHO cells expressing hCB2 receptors

T2 sequence (P21554 whole entry): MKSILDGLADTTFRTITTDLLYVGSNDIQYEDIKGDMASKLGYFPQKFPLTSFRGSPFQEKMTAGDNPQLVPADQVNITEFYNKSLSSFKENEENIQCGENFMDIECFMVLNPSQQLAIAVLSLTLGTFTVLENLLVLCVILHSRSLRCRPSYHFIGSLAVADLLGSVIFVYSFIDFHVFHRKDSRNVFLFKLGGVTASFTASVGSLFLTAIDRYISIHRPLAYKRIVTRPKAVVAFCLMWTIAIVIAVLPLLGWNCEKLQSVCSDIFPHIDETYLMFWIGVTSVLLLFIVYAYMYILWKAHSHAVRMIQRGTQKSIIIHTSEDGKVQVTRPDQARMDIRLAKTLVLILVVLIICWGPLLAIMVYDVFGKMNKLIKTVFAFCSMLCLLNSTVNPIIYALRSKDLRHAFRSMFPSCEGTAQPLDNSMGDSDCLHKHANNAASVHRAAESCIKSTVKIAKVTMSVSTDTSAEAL
T4 sequence (P21554 whole entry, species assumed): as the sequence (P21554 whole entry) above
T1 sequence (P34972 whole entry): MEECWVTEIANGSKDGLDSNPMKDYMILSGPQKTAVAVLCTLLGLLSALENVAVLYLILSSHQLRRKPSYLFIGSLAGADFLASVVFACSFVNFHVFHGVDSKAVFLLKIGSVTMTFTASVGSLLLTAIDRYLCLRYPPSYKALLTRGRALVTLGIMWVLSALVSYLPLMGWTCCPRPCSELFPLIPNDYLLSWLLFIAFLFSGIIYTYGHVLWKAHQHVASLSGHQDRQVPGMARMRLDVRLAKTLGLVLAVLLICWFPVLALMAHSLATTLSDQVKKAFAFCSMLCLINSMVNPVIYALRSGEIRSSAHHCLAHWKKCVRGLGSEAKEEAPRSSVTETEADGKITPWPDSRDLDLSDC
T3 sequence (P34972 whole entry): as above

SMILES: CC(C)(C)OC(=O)CC(C(=O)NCc1cccc(C(F)(F)F)c1)N1C(=O)C(N2C(=O)OCC2c2ccccc2)C1C=Cc1ccccc1 [Example 19F, 2(R)-(tert-Butoxycarbonylmethyl)-2-[3(S)-(4(S)-phenyloxazolidin-2-on-3-yl)-4(R)-(2-styryl)azetidin-2-on-1-yl]acetic acid N-(3-trifluoromethylbenzyl)amide]
- IC50 [1]: <1 µM

SMILES: O=C(NCc1cccc(C(F)(F)F)c1)C(CC(=O)N1CCC(N2CCCCC2)CC1)N1C(=O)C(N2C(=O)OCC2c2ccccc2)C1C=Cc1ccccc1 (stereo not drawn) [Example 31A]
- IC50 [1]: 0.379 µM
- Ki [1]: 0.253 µM

SMILES: O=C(NCc1cccc(C(F)(F)F)c1)C(CCC(=O)N1CCN(CCc2ccccc2)CC1)N1C(=O)C(N2C(=O)OCC2c2ccccc2)C1C=Cc1ccccc1 (stereo not drawn) [Example 44B]
- IC50 [1]: <1 µM

SMILES: Cc1c(C(=O)NN2CCCCC2)nn(-c2ccc(Cl)cc2Cl)c1-c1ccc(I)cc1 [AM251, N-(piperidin-1-yl)-1-(2,4-dichlorophenyl)-5-(4-iodophenyl)-4-methyl-1H-pyrazole-3-carboxamide, reference compound]
- antagonism of WIN 55212-2 at CB1 receptors [2]: antagonism

SMILES: Cc1ccc(C2(NC(=O)C(CCC(=O)N3CCN(C4CCCCC4)CC3)N3C(=O)C(N4C(=O)OCC4c4ccccc4)C3C=Cc3ccccc3)CCCC2)cc1 (stereo not drawn) [Example 42L]
- IC50 [1]: ~10 µM

SMILES: CCCCCCC(C)(C)c1ccc(C2CC(O)CCC2CCCO)c(O)c1 (stereo not drawn) [CP55940, 5-(1,1-dimethylheptyl)-2-[5-hydroxy-2-(3-hydroxypropyl)-cyclohexyl]-phenol]
- agonism of CB2 receptors [3]: agonism

SMILES: O=C(CC(C(=O)N1CCN(CCc2ccccc2)CC1)N1C(=O)C(N2C(=O)OCC2c2ccccc2)C1C=Cc1ccccc1)NCc1cccc(C(F)(F)F)c1 (stereo not drawn) [Example 28A]
- IC50 [1]: <10 µM

SMILES: O=C(NC1(c2cccc(F)c2)CCCC1)C(CCC(=O)N1CCN(C2CCCCC2)CC1)N1C(=O)C(N2C(=O)OCC2c2ccccc2)C1C=Cc1ccccc1 (stereo not drawn) [Example 42H]
- IC50 [1]: ~10 µM

SMILES: O=C(NC1(c2ccc(Cl)cc2)CCCC1)C(CCC(=O)N1CCN(C2CCCCC2)CC1)N1C(=O)C(N2C(=O)OCC2c2ccccc2)C1C=Cc1ccccc1 (stereo not drawn) [Example 42J]
- IC50 [1]: ~10 µM

SMILES: O=C(CC[C@@H](C(=O)N1CCN(C2CCCCC2)CC1)N1C(=O)[C@@H](N2C(=O)OC[C@@H]2c2ccccc2)[C@H]1/C=C/c1ccccc1)NCc1ccc(Cl)c(C(F)(F)F)c1 [Example 37U]
- IC50 [4, 6]: 2.1 µM
- Ki [4]: 1.07 µM
- antagonism at CB1 receptors [2]: antagonism
- antagonism of 3 μM WIN 55212-2 at CB1 receptors [2]: antagonism

SMILES: O=C(CC[C@@H](C(=O)N1CCN(C2CCCCC2)CC1)N1C(=O)[C@@H](N2C(=O)OC[C@@H]2c2ccccc2)[C@H]1/C=C/c1ccccc1)NCc1cc(F)cc(C(F)(F)F)c1 [Example 37S]
- IC50 [4, 6]: 2.3 µM
- Ki [4]: 1.15 µM
- antagonism of WIN 55212-2 at CB1 receptors [2]: antagonism
- antagonism at CB1 receptors [2]: antagonism
- antagonism of 3 μM WIN 55212-2 at CB1 receptors [2]: antagonism

SMILES: COc1ccc(C2(NC(=O)C(CCC(=O)N3CCN(C4CCCCC4)CC3)N3C(=O)C(N4C(=O)OCC4c4ccccc4)C3C=Cc3ccccc3)CC2)cc1 (stereo not drawn) [Example 42M]
- IC50 [1]: ~10 µM

SMILES: CC(C)(C)OC(=O)CCC(C(=O)NCc1cccc(C(F)(F)F)c1)N1C(=O)C(N2C(=O)OCC2c2ccccc2)C1C=Cc1ccccc1 [Example 19H, 2(R)-(tert-Butoxycarbonylethyl)-2-[3 (S)-(4(S)-phenyloxazolidin-2-on-3-yl)-4(R)-(2-styryl)azetidin-2-on-1-yl]acetic acid N-(3-trifluoromethylbenzyl)amide]
- IC50 [1]: <1 µM

SMILES: O=C(NCc1ccc(Cl)c(C(F)(F)F)c1)[C@H](CCC(=O)N1CCN(C2CCCCC2)CC1)N1C(=O)[C@@H](N2C(=O)OC[C@@H]2c2ccccc2)[C@H]1/C=C/c1ccccc1 [Example 38J]
- IC50 ([5]; quoted for the single-dose negative control of the CB2 functional assay, assay of the IC50 not stated): > 10 µM

SMILES: CC(C)(C)C(=O)C(C(=O)OCc1ccccc1)N1C(=O)C(c2cccs2)C1C=Cc1ccccc1 (mixture of isomers) [Example 70C, Benzyl 2(RS)-tert-Butylcarbonyl-2-[3(S*)-2-thienyl)-4(R*)-(2-styryl)azetidin-2-on-1-yl]acetate]
- IC50 [4, 6]: 1.35 µM and 1.4 µM
- Ki [4]: 0.676 µM and 0.67 µM
- antagonism of WIN 55212-2 at CB1 receptors [2]: antagonism
- antagonism at CB1 receptors [2]: antagonism
- antagonism of 3 μM WIN 55212-2 at CB1 receptors [2]: antagonism

SMILES: O=C(NC1(c2ccc(Cl)cc2)CC1)C(CCC(=O)N1CCN(C2CCCCC2)CC1)N1C(=O)C(N2C(=O)OCC2c2ccccc2)C1C=Cc1ccccc1 (stereo not drawn) [Example 42I]
- IC50 [1]: ~10 µM

SMILES: CC(C)(C)OC(=O)CCC(C(=O)N1CCN(CCc2ccccc2)CC1)N1C(=O)C(N2C(=O)OCC2c2ccccc2)C1C=Cc1ccccc1 [Example 19E, 2(S)-(tert-Butoxycarbonylethyl)-2-[3(S)-(4(S)-phenyloxazolidin-2-on-3-yl)-4(R)-(2-styryl)azetidin-2-on-1-yl]acetic acid N-[4-(2-phenylethyl)]piperazinamide]
- IC50 [1]: <10 µM

SMILES: Cc1ccc(C2(NC(=O)C(CCC(=O)N3CCN(C4CCCCC4)CC3)N3C(=O)C(N4C(=O)OCC4c4ccccc4)C3C=Cc3ccccc3)CC2)cc1 (stereo not drawn) [Example 42K]
- IC50 [1]: ~10 µM

SMILES: O=C(CN1C(=O)C(c2cccs2)C1C=Cc1ccccc1)OCc1ccccc1 (stereo not drawn) [Example 70B, Benzyl 2-[3(S*)-2-Thienyl)-4(R*)-(2-styryl)azetidin-2-on-1-yl]acetate]
- IC50 [4, 7]: < 10 µM
- IC50 [1]: ~1 µM

SMILES: CCN1CCN(C(=O)CCC(C(=O)NCc2cccc(C(F)(F)F)c2)N2C(=O)C(N3C(=O)OCC3c3ccccc3)C2C(Br)=Cc2ccccc2)CC1 (stereo not drawn) [Example 45U]
- IC50 [1]: <10 µM

SMILES: O=C(C(CCCc1ccccc1)N1C(=O)C(N2C(=O)OCC2c2ccccc2)C1C=Cc1ccccc1)N1CCN(C2CCCCC2)CC1 (stereo not drawn) [Example 62E]
- IC50 [1]: 0.539 µM
- Ki [1]: 0.360 µM

SMILES: O=C(CC[C@@H](C(=O)N1CCN(C2CCCCC2)CC1)N1C(=O)[C@@H](N2C(=O)OC[C@@H]2c2ccccc2)[C@H]1/C=C/c1ccccc1)NCc1cc(Cl)ccc1Cl [Example 37O]
- IC50 [4, 7]: < 10 µM

SMILES: O=C(NCc1cccc(C(F)(F)F)c1F)C(CC(=O)N1CCC(N2CCCCC2)CC1)N1C(=O)C(N2C(=O)OCC2c2ccccc2)C1C=Cc1ccccc1 [Example 33G, 2(R)-[[4-(Piperidinyl)piperidinyl]carbonylmethyl]-2-[3 (S)-(4(S)-phenyloxazolidin-2-on-3-yl)-4(R)-(2-styryl)azetidin-2-on-1-yl]acetic acid N-(2-fluoro-3-trifluoromethylbenzyl)carboxamide]
- IC50 [5, 8]: 0.273 µM
- Ki [5, 8]: 0.182 µM

SMILES: O=C(CC[C@@H](C(=O)N1CCN(c2ccccc2)CC1)N1C(=O)[C@@H](N2C(=O)OC[C@@H]2c2ccccc2)[C@H]1/C=C/c1ccccc1)NCc1cc(F)cc(C(F)(F)F)c1 [Example 73D]
- IC50 [4, 6]: ~10 µM
